Experimental data reported in publication PMC9603750, “Chalcone-Acridine Hybrid Suppresses Melanoma Cell Progression via G2/M Cell Cycle Arrest, DNA Damage, Apoptosis, and Modulation of MAP Kinases Activity” (International Journal of Molecular Sciences, 2022).

How the values were obtained:
Assay in all cases: MTT assay (metabolic activity)
MCF-10A = type: cell-based; conditions: Homo sapiens; MCF-10A noncancer cell line, 72 h incubation
Experimental: (§1) Cell lines A2058 (human melanoma lymph node metastasis, cat. 91100402) from ECACC (Public Health England, Salisbury, UK) and BLM (human melanoma lung metastasis a gift from prof. K. Smetana, Institute of Anatomy, Charles University in Prague) were cultured in a medium consisting of high glucose Dulbecco’s Modified Eagle’s Medium (DMEM) and sodium pyruvate (GE Healthcare, Piscataway, NJ, USA). The growth medium was supplemented with a 10% fetal bovine serum (FBS) and antibiotic/antimycotic solution 1 × HyClone™ (GE Healthcare, Chicago, IL, USA). The MCF-10A (human mammary epithelial cells) cell line was cultured in a medium consisting of high glucose Dulbecco’s Modified Eagle’s Medium F12 (DMEM/F12) (Biosera, Kansas City, MO, USA). The growth medium was supplemented with a 10% FBS, antibiotic/antimycotic solution 1 × HyClone™ (GE Healthcare, Chicago, IL, USA), epidermal growth factor (EGF) (20 ng/mL final), hydrocortisone (0.5 μg/mL final) and insulin (10 μg/mL final) (Sigma-Aldrich Chemie, Steinheim, Germany). Cells were cultured in humidified air at 37 °C with atmosphere containing 5% CO2.
(§2) The half-maximal inhibitory concentration values (IC50) and metabolism inhibition of tested synthetic chalcone derivatives were determined by MTT (3-(4,5-di-methylthiazol-2-yl)2,5-diphenyltetrazolium bromide) colorimetric assay (Sigma-Aldrich Chemie, Steinheim, Germany). Tested cell lines were seeded at a density of 5 × 10^3 cells/well in 96-well culture plates. After 24 h, the tested chalcones in concentrations of 100, 50 and 10 μmol/L were added and incubation proceeded for the next 72 h. In the next step, 10 μL of MTT (5 mg/mL) was added to each well containing cells and incubated for another 4 h at 37 °C during which MTT was metabolized to insoluble formazan in cells. After 4 h, 100 μL of a 10% sodium dodecyl sulphate (SDS) was added to each well and another 24 h were allowed for the formazan crystals to dissolve. The metabolic activity of cells was evaluated by measuring the absorbance at wavelength 540 nm using the automated Cytation™ 3 Cell Imaging Multi-Mode Reader (Biotek, Winooski, VT, USA). Three independent analyses were performed.

A2058 = type: cell-based, human; conditions: Homo sapiens; A2058, 72 h incubation
Experimental: as §1, §2

BLM = type: cell-based, human; conditions: Homo sapiens; BLM, 72 h incubation
Experimental: as §1, §2

Row | Structure (SMILES) | IC50 (MCF-10A) [µM] | IC50 (A2058) [µM] | IC50 (BLM) [µM]
1 | CC(C)Oc1[nH]c2ccccc2c1/C=C/C(=O)c1ccccc1F [ZKCH-11E, (2E)-1-(2-fluorophenyl)-3-[2-(propan-2-yloxy)-1H-indol-3-yl]prop-2-en-1-one] | 44.7 ± 4.96 | 37.3 ± 2.28 | 33.8 ± 2.14
2 | CC(C)COc1[nH]c2ccccc2c1/C=C/C(=O)c1ccccc1F [ZKCH-11G, (2E)-1-(2-fluorophenyl)-3-[2-(2-methylpropoxy)-1H-indol-3-yl]prop-2-en-1-one] | 51.3 ± 3.94 | 40 ± 1.37 | 39.5 ± 3.9
3 | CCCCOc1[nH]c2ccccc2c1/C=C/C(=O)c1ccccc1F [ZKCH-11F, (2E)-3-(2-butoxy-1H-indol-3-yl)-1-(2-fluorophenyl)prop-2-en-1-one] | > 100 | 45.8 ± 2.54 | 47.7 ± 1.49
4 | CCOc1[nH]c2ccccc2c1/C=C/C(=O)c1ccccc1F [ZKCH-11C, (2E)-3-(2-ethoxy-1H-indol-3-yl)-1-(2-fluorophenyl)prop-2-en-1-one] | > 100 | 41.6 ± 0.73 | 38.55 ± 0.06
5 | COn1cc(/C=C/C(=O)c2ccccc2F)c2ccccc21 [ZKCH-11A, (2E)-1-(2-fluorophenyl)-3-(1-methoxy-1H-indol-3-yl)prop-2-en-1-one] | 85 ± 2.19 | 31.9 ± 0.95 | 35.3 ± 6.1
6 | O=C(/C=C/c1c[nH]c2ccccc12)c1ccccc1F [ZKCH-11H, (2E)-1-(2-fluorophenyl)-3-(1H-indol-3-yl)prop-2-en-1-one] | 60.7 ± 3.09 | 42.4 ± 2.98 | 40.9 ± 2.62
